Drawing on the Deep4Chem optical property database, this text covers photoluminescence quantum yield for 38 compounds.

This series in a line: photoluminescence quantum yield (fraction); solvent given as SMILES.

As to `COC(=O)C(Cc1ccc2oc(-c3ccc(N(C)c4ccccc4)cc3)nc2c1)NC(=O)OC(C)(C)C` (stereo not drawn), the photoluminescence quantum yield runs as follows: (in C1CCCCC1) 0.998; (in C1CCOC1) 0.27; (in C1COCCO1) 0.73; (in CC1CCCO1) 0.52; (in CC1COC(=O)O1) 0.11; (in CC#N) 0.11. Also, the photoluminescence quantum yield (in CC(C)=O) was determined as 0.19; the photoluminescence quantum yield (in CC(C)CC(C)(C)C) came out at 1; the photoluminescence quantum yield (in CC(C)CO) is 0.2; the photoluminescence quantum yield (in CC(C)O) is 0.19; the photoluminescence quantum yield (in CC(O)CO) was found to be 0.11; the photoluminescence quantum yield (in CCC(C)CC) was determined as 0.97. Further, the photoluminescence quantum yield is, setting by setting: (in CCCCC) 1; (in CCCCCC) 1; (in CCCCCCCCC) 0.95; (in CCCCCCCCCC) 1; (in CCCCCCCO) 0.21; (in CCCCCCO) 0.22. Besides, the photoluminescence quantum yield by setting is: (in CCCCCO) 0.28; (in CCCCO) 0.18; (in CCO) 0.07; (in CCOC(C)=O) 0.39; (in CCOCC) 0.6; (in CN(C)C=O) 0.16. In addition, the photoluminescence quantum yield came to 0.03 (in CO); 0.07 (in COCCOC); 0.15 (in CS(C)=O); 0.78 (in Cc1ccccc1); 0.84 (in Cc1ccccc1C); 0.58 (in ClC(Cl)Cl). Further, the photoluminescence quantum yield by setting is: (in ClCCl) 0.45; (in NC=O) 0.02; (in OC1CCCCC1) 0.18; (in OCCO) 0.03; (in c1ccccc1) 0.76.
As for `CCCCN(CCCC)c1ccc(/C=C/c2ccc3nc(/C=C/c4ccc(N(C)C)cc4)c(=O)n(CCC)c3c2)cc1`, the photoluminescence quantum yield by setting is: (in C1COCCO1) 0.26; (in CC#N) 0.04; (in ClCCl) 0.2.
`COc1cc(OC)cc(C2=[O+][B-](F)(F)OC(c3cccs3)=C2)c1`: the photoluminescence quantum yield was 0.002 (in CC#N); 0.01 (in CC(C)=O); 0.16 (in CCCCCC); 0.14 (in Cc1ccccc1); 0.04 (in ClCCl).
Regarding `Cc1ccc(-[c+]2c3ccccc3oc3ccccc32)cc1`, the photoluminescence quantum yield (in CC#N) was 0.014.
As for `N#CC(C#N)=Cc1ccc(-c2ccc(O)c(-c3nc4ccccc4s3)c2)s1`, the photoluminescence quantum yield was determined as 0.0198 (in CCO) and 0.016 (in ClCCl).
Compound `COc1ccc(/C=C/C=C/C=C/c2ccc([N+](=O)[O-])cc2)cc1` came in with a photoluminescence quantum yield (in C1CCOC1) of 0.44; a photoluminescence quantum yield (in C1COCCO1) of 0.57; a photoluminescence quantum yield (in CC1CCCCC1) of 0.21; a photoluminescence quantum yield (in CC#N) of 0.013; a photoluminescence quantum yield (in CO) of 0.002; a photoluminescence quantum yield (in CS(C)=O) of 0.03. The compound further returned a photoluminescence quantum yield (in Cc1ccccc1) of 0.63, a photoluminescence quantum yield (in ClC(Cl)Cl) of 0.14 and a photoluminescence quantum yield (in ClCCl) of 0.074.
Consider `Cc1ccc(-c2cnc3nn4ccccc4c3n2)cc1`, for which, for the setting “in C1CCOC1”, the photoluminescence quantum yield worked out at 0.26.
Under “in c1ccc2c(c1)c1ccccc1n2-c1ccc(-c2ccc(-n3c4ccccc4c4ccccc43)cc2)cc1”, `O=c1c2ccc(-c3ccc(N(c4ccccc4)c4ccccc4)cc3)cc2sc2cccc(-c3ccc(N(c4ccccc4)c4ccccc4)cc3)c12` had a photoluminescence quantum yield of 0.025.
Under “in Cc1ccccc1”, `CC(C)c1cccc(C(C)C)c1N1C(=O)c2cc(Cl)c3c4c(Cl)cc5c6c(cc(Cl)c(c7c(Cl)cc(c2c37)C1=O)c64)C(=O)N(c1c(C(C)C)cccc1C(C)C)C5=O` registered a photoluminescence quantum yield of 0.95.
In turn, `COc1ccc(/C=C/c2cc(/C=C/c3ccc(N(c4ccccc4)c4ccccc4)cc3)nc(/C=C/c3ccc(N(C)C)cc3)n2)cc1` yielded a photoluminescence quantum yield (in ClCCl) of 0.02.
For `CC(=O)OC[C@@H]1O[C@H](N2C=CC3=Nc4nc(C)[n+](C)cc4CN3C2=O)[C@@H](O)[C@H]1O`, the photoluminescence quantum yield reads like this: (in CC#N) 0.89; (in CCO) 0.05; (in O) 0.2.
As to `C(=C\c1cnccn1)/c1ccc(N(c2ccccc2)c2ccccc2)cc1`, for the setting “in ClCCl”, the photoluminescence quantum yield came out at 0.41.
As to `CCCCCCn1c2cc(C(=O)OCC)ccc2c2c1c1ccc(C(=O)OCC)cc1n2CCCCCC`, the photoluminescence quantum yield (in CCCO) is 0.6.
For the setting “in ClCCl”, `N#Cc1cc(-c2ccc(/C=C/c3ccc(N(c4ccccc4)c4ccccc4)cc3)c(C#N)c2)ccc1/C=C/c1ccc(N(c2ccccc2)c2ccccc2)cc1` returned a photoluminescence quantum yield of 0.37.
On to `COC(=O)C1=C(C(=O)OC)C2(c3ccccc3-c3c(C(=O)OC)cccc32)[C@@H](c2ccc(Cl)cc2)C=C2c3cc(OC)c(OC)cc3CCN21` (stereo partly drawn), for which, for the setting “in ClCCl”, the photoluminescence quantum yield stood at 0.00593.
Under “in c1cc(-c2cccc(-n3c4ccccc4c4ccccc43)c2)cc(-n2c3ccccc3c3ccccc32)c1”, `Cc1cc(C)c2c(c1)c1cc(C)cc(C)c1n2-c1ccc2c(c1)B(c1c(C(C)C)cc(C(C)C)cc1C(C)C)c1cc(-n3c4c(C)cc(C)cc4c4cc(C)cc(C)c43)ccc1N2c1ccccc1` came in with a photoluminescence quantum yield of 0.56.
For the compound `Cc1ccc(N/C=C/C=[NH+]c2ccc(C)cc2)cc1`, for the setting “in CS(C)=O”, the photoluminescence quantum yield worked out at 0.14.
As for `CCc1c(C)[nH]c(C2=[N+]3C(=Cc4c(C)c(CC)c(C)n4[B-]3(F)F)c3ccccc32)c1C`, the photoluminescence quantum yield runs as follows: (in C1CCOC1) 0.09; (in CC#N) 0.03; (in CCCCCC) 0.86; (in CO) 0.04; (in Cc1ccccc1) 0.75; (in ClCCl) 0.73.
Where the note is “in CO”, `CC1(C)C(/C=C/C2=C(c3ccc(C(=O)O)cc3)C(=C/C=C3/N(CCCCS(=O)(=O)[O-])c4ccc(S(=O)(=O)[O-])cc4C3(C)C)/CCC2)=[N+](CCCCS(=O)(=O)[O-])c2ccc(S(=O)(=O)[O-])cc21` registered a photoluminescence quantum yield of 0.1.
Where the note is “in ClCCl”, `Fc1ccc(N(c2ccc(F)cc2)c2ccc3c4cccc5c(N(c6ccc(F)cc6)c6ccc(F)cc6)ccc(c6cccc2c63)c54)cc1` showed a photoluminescence quantum yield of 0.64.
As for `O=C(O)C1=C/C(=C/C=[N+]2/c3cc(O)c(C[C@@H]4O[C@H](CO)[C@@H](O)C(O)[C@H]4O)cc3C[C@H]2C(=O)O)C[C@H](C(=O)O)N1` (stereo partly drawn), the photoluminescence quantum yield is, setting by setting: (in CO) 0.0015; (in O) 0.0007; (in OCCO) 0.0041; (in [2H]O[2H]) 0.001.
Take `COc1ccc(C#Cc2c3ccccc3c(C#Cc3ccc(OC)cc3)c3cc4sc(C)cc4cc23)cc1`: the photoluminescence quantum yield (in ClCCl) was found to be 0.75.
In turn, `COc1ccc(-c2c3cc4ccccc4cc3c(-c3ccc(OC)cc3)c3cc4ccccc4cc23)cc1` showed a photoluminescence quantum yield (in ClCCl) of 0.09.
Under “in ClCCl”, `c1ccc2c(c1)ccc1ccc3ccc4ccc5ccccc5c4c3c12` showed a photoluminescence quantum yield of 0.02.
On to `COc1ccc(C2=Cc3ccc4ccccc4[n+]3[B-](F)(F)O2)cc1`, for which the photoluminescence quantum yield (in ClC(Cl)Cl) turned out to be 0.94.
Consider `C/C(=C\c1ccccc1)c1nc2ccccc2o1`, for which the photoluminescence quantum yield by setting is: (in C1CCCCC1) 0.007; (in CO) 0.002.
As to `F[B-]1(F)n2cccc2C(c2ccccc2)=C2C=CC(c3cccc(OC4=[N+]5C(=C(c6ccccc6)c6cc(Br)c(-c7ccc[nH]7)n6[B-]5(F)F)C=C4Br)c3)=[N+]21`, the photoluminescence quantum yield (in ClC(Cl)Cl) was found to be 0.18.
On to `COc1ccc(C2=CC(c3ccccc3)=[N+]3C2=Nc2c(-c4ccc(OC)cc4)cc(-c4ccccc4)n2[B-]3(F)F)cc1`, for which the photoluminescence quantum yield is, setting by setting: (in Cc1ccccc1) 0.24; (in ClC(Cl)Cl) 0.23.
As to `N#Cc1nc2c(nc1C#N)C1c3ccc(N(c4ccccc4)c4ccccc4)cc3C2c2ccc(N(c3ccccc3)c3ccccc3)cc21`, the photoluminescence quantum yield turned out to be 0.55 (in C1CCCCC1), 0.001 (in CC#N), 0.25 (in Cc1ccccc1) and 0.002 (in ClCCl).
Under “in CC#N”, `C=C[C@]12CC[C@H](CC1)N=N2` came in with a photoluminescence quantum yield of 0.0009.
Regarding `COc1cc(C2=c3c(c4ccc(C(C)(C)C)cc4c4cc(C(C)(C)C)ccc34)=[N+]3C2=Nc2c(-c4cc(OC)c(OC)c(OC)c4)c4c5ccc(C(C)(C)C)cc5c5cc(C(C)(C)C)ccc5c4n2[B-]3(F)F)cc(OC)c1OC`, the photoluminescence quantum yield (in Cc1ccccc1) came to 0.01.
With `COc1ccc(C2=C(c3ccc(OC)cc3)C(C)(C)c3cc(OC)ccc32)cc1`, for the setting “in C1CCCCC1”, the photoluminescence quantum yield is 0.12.
Regarding `CC1=C(C2=C(C)C(C)=[N+]3C2=Cc2cc(C)c(C)n2[B-]3(F)F)C2=Cc3cc(C)c(C)n3[B-](F)(F)[N+]2=C1C`, the photoluminescence quantum yield (in ClCCl) is 0.05.
Compound `Cc1ccc2sc3cc(CCC(=O)O)ccc3c(=O)c2c1` returned a photoluminescence quantum yield (in CC#N) of 0.0041; a photoluminescence quantum yield (in CC(C)O) of 0.054; a photoluminescence quantum yield (in CCO) of 0.082; a photoluminescence quantum yield (in CO) of 0.12; a photoluminescence quantum yield (in OCCO) of 0.23.
`COc1cc(/C=C/c2ccncc2)c(OC)cc1C=O`: the photoluminescence quantum yield (in C1CCOC1) is 0.11; the photoluminescence quantum yield (in CC#N) was found to be 0.17; the photoluminescence quantum yield (in CN(C)C=O) turned out to be 0.15; the photoluminescence quantum yield (in Cc1ccccc1) came out at 0.09; the photoluminescence quantum yield (in ClCCl) was 0.26.
In turn, `Cc1cc2nc3c(=O)[nH]c(=O)n(C)c3nc2cc1C` registered a photoluminescence quantum yield (in CC#N) of 0.027.
`COc1cccc2cc(-c3ccc([N+](=O)[O-])cc3)c(=N)oc12`: the photoluminescence quantum yield runs as follows: (in C1CCOC1) 0.004; (in CC#N) 0.0016; (in CS(C)=O) 0.0021; (in ClC(Cl)Cl) 0.023.
Under “in O”, `COc1ccc(C2=C3C=CC(=[N+](C)C)C=C3[Si](C)(C)c3cc(N(C)C)ccc32)c(C)c1` displayed a photoluminescence quantum yield of 0.29.
